Measured values as given in patent US8796289B2 (AbbVie Inc., priority 2011, dated 2014).

Molecular target: GST-tagged-Wee1 kinase (Homo sapiens, UniProt P30291)
Assay: Wee1 time-resolved fluorescence equilibrium binding assay (displacement of Oregon Green-labeled ATP-competitive kinase probe)
Settings: not given
Experimental: Wee1 kinase was assayed using a time-resolved fluorescence equilibrium binding assay monitoring displacement of a rapidly reversible Oregon Green-labeled ATP-competitive kinase probe (N-(2-(2-(2-(4-(4-(5-chloro-4-(2-(1-hydroxycyclobutyl)thiazol-5-yl)-1H-pyrrolo[2,3-b]pyridin-2-yl)phenyl)piperazin-1-yl)ethoxy)ethoxy)ethyl)-2′,7′-difluoro-3′,6′-dihydroxy-3-oxo-3H-spiro[isobenzofuran-1,9′-xanthene]-5-carboxamide) by competitive Wee1 inhibitors.

Sequence of GST-tagged-Wee1 kinase (P30291 whole entry): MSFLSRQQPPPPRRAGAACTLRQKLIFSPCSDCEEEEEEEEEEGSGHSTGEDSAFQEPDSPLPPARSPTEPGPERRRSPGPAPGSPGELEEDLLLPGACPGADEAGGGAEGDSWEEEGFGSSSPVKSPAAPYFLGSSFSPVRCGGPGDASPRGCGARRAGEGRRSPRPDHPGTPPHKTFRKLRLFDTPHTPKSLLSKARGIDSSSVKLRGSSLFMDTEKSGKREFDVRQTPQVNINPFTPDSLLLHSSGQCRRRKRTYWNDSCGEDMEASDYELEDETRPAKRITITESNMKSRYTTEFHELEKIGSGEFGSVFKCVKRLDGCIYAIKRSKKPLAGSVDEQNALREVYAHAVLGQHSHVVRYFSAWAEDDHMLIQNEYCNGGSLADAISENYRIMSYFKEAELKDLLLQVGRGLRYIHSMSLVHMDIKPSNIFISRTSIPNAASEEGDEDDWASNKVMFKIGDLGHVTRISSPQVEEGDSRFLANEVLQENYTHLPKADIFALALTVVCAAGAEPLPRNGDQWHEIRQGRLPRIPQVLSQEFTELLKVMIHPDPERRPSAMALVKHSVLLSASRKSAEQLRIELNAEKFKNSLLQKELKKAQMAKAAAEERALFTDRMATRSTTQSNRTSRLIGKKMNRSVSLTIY

| Ki [nM] | SMILES |
| --- | --- |
| 3.7 | Cn1cnc(-c2nn(-c3c(Cl)cncc3Cl)c(=O)c3cnc(Nc4ccc5c(c4)CNCC54CC4)nc23)c1 [Example 372, 6-(3,5-dichloropyridin-4-yl)-2-(2′,3′-dihydro-1′H-spiro[cyclopropane-1,4′-isoquinolin]-7′-ylamino)-8-(1-methyl-1H-imidazol-4-yl)pyrimido[4,5-d]pyridazin-5(6H)-one] |
| 69 | Cn1cnc(-c2nn(-c3ccncc3Cl)c(=O)c3cnc(Nc4ccc5c(c4)CNCC54CC4)nc23)c1 [Example 373, 6-(3-chloropyridin-4-yl)-2-(2′,3′-dihydro-1′H-spiro[cyclopropane-1,4′-isoquinolin]-7′-ylamino)-8-(1-methyl-1H-imidazol-4-yl)pyrimido[4,5-d]pyridazin-5(6H)-one] |
| 0.67 | CC(=O)N1CCN(c2ccc(Nc3ncc4c(=O)n(-c5c(Cl)cccc5Cl)nc(-c5ccccn5)c4n3)cc2)CC1 [Example 374, 2-{[4-(4-acetylpiperazin-1-yl)phenyl]amino}-6-(2,6-dichlorophenyl)-8-(pyridin-2-yl)pyrimido[4,5-d]pyridazin-5(6H)-one] |
| 1.2 | CC(=O)N1Cc2cc(Nc3ncc4c(=O)n(-c5c(Cl)cccc5Cl)nc(-c5ccccn5)c4n3)ccc2C2(CC2)C1 [Example 375, 2-[(2′-acetyl-2′,3′-dihydro-1′H-spiro[cyclopropane-1,4′-isoquinolin]-7′-yl)amino]-6-(2,6-dichlorophenyl)-8-(pyridin-2-yl)pyrimido[4,5-d]pyridazin-5(6H)-one] |
| 1.3 | CS(=O)(=O)N1CCN(c2ccc(Nc3ncc4c(=O)n(-c5c(Cl)cccc5Cl)nc(-c5ccccn5)c4n3)cc2)CC1 [Example 376, 6-(2,6-dichlorophenyl)-2-({4-[4-(methylsulfonyl)piperazin-1-yl]phenyl}amino)-8-(pyridin-2-yl)pyrimido[4,5-d]pyridazin-5(6H)-one] |
| 1.3 | CS(=O)(=O)N1Cc2cc(Nc3ncc4c(=O)n(-c5c(Cl)cccc5Cl)nc(-c5ccccn5)c4n3)ccc2C2(CC2)C1 [Example 377, 6-(2,6-dichlorophenyl)-2-{[2′-(methylsulfonyl)-2′,3′-dihydro-1′H-spiro[cyclopropane-1,4′-isoquinolin]-7′-yl]amino}-8-(pyridin-2-yl)pyrimido[4,5-d]pyridazin-5(6H)-one] |
| 0.49 | CC(=O)N1CCN(c2ccc(Nc3ncc4c(=O)n(-c5c(Cl)cccc5Cl)nc(-c5ccncc5)c4n3)cc2)CC1 [Example 378, 2-{[4-(4-acetylpiperazin-1-yl)phenyl]amino}-6-(2,6-dichlorophenyl)-8-(pyridin-4-yl)pyrimido[4,5-d]pyridazin-5(6H)-one] |
| 0.45 | CC(=O)N1Cc2cc(Nc3ncc4c(=O)n(-c5c(Cl)cccc5Cl)nc(-c5ccncc5)c4n3)ccc2C2(CC2)C1 [Example 379, 2-[(2′-acetyl-2′,3′-dihydro-1′H-spiro[cyclopropane-1,4′-isoquinolin]-7′-yl)amino]-6-(2,6-dichlorophenyl)-8-(pyridin-4-yl)pyrimido[4,5-d]pyridazin-5(6H)-one] |
| 0.61 | CS(=O)(=O)N1CCN(c2ccc(Nc3ncc4c(=O)n(-c5c(Cl)cccc5Cl)nc(-c5ccncc5)c4n3)cc2)CC1 [Example 380, 6-(2,6-dichlorophenyl)-2-({4-[4-(methylsulfonyl)piperazin-1-yl]phenyl}amino)-8-(pyridin-4-yl)pyrimido[4,5-d]pyridazin-5(6H)-one] |
| 0.81 | CS(=O)(=O)N1Cc2cc(Nc3ncc4c(=O)n(-c5c(Cl)cccc5Cl)nc(-c5ccncc5)c4n3)ccc2C2(CC2)C1 [Example 381, 6-(2,6-dichlorophenyl)-2-{[2′-(methylsulfonyl)-2′,3′-dihydro-1′H-spiro[cyclopropane-1,4′-isoquinolin]-7′-yl]amino}-8-(pyridin-4-yl)pyrimido[4,5-d]pyridazin-5(6H)-one] |
| 7.6 | CN1CCN(c2ccc(Nc3ncc4c(=O)n(-c5ccncc5Cl)nc(-c5ccncc5)c4n3)cc2)CC1 [Example 382, 6-(3-chloropyridin-4-yl)-2-{[4-(4-methylpiperazin-1-yl)phenyl]amino}-8-(pyridin-4-yl)pyrimido[4,5-d]pyridazin-5(6H)-one] |
| 1.1 | O=c1c2cnc(Nc3ccc4c(c3)CNCC43CC3)nc2c(-c2ccncc2)nn1-c1ccncc1Cl [Example 383, 6-(3-chloropyridin-4-yl)-2-(2′,3′-dihydro-1′H-spiro[cyclopropane-1,4′-isoquinolin]-7′-ylamino)-8-(pyridin-4-yl)pyrimido[4,5-d]pyridazin-5(6H)-one] |
| 13 | CN1CCN(c2ccc(Nc3ncc4c(=O)n(-c5ccncc5Cl)nc(-c5ccccn5)c4n3)cc2)CC1 [Example 384, 6-(3-chloropyridin-4-yl)-2-{[4-(4-methylpiperazin-1-yl)phenyl]amino}-8-(pyridin-2-yl)pyrimido[4,5-d]pyridazin-5(6H)-one] |
| 7.2 | O=c1c2cnc(Nc3ccc4c(c3)CNCC43CC3)nc2c(-c2ccccn2)nn1-c1ccncc1Cl [Example 385, 6-(3-chloropyridin-4-yl)-2-(2′,3′-dihydro-1′H-spiro[cyclopropane-1,4′-isoquinolin]-7′-ylamino)-8-(pyridin-2-yl)pyrimido[4,5-d]pyridazin-5(6H)-one] |
| 0.48 | CN1CCN(c2ccc(Nc3ncc4c(=O)n(-c5c(Cl)cccc5Cl)nc(C5CC5)c4n3)cc2)CC1 [Example 386, 8-cyclopropyl-6-(2,6-dichlorophenyl)-2-{[4-(4-methylpiperazin-1-yl)phenyl]amino}pyrimido[4,5-d]pyridazin-5(6H)-one] |
| 0.33 | CCc1nn(-c2c(Cl)cccc2Cl)c(=O)c2cnc(Nc3ccc(N4CCN(C)CC4)cc3)nc12 [Example 388, 6-(2,6-dichlorophenyl)-8-ethyl-2-{[4-(4-methylpiperazin-1-yl)phenyl]amino}pyrimido[4,5-d]pyridazin-5(6H)-one] |
| 0.28 | CN1Cc2cc(Nc3ncc4c(=O)n(-c5c(Cl)cccc5Cl)nc(C5CC5)c4n3)ccc2C2(CC2)C1 [Example 389, 8-cyclopropyl-6-(2,6-dichlorophenyl)-2-[(2′-methyl-2′,3′-dihydro-1′H-spiro[cyclopropane-1,4′-isoquinolin]-7′-yl)amino]pyrimido[4,5-d]pyridazin-5(6H)-one] |
| 0.41 | O=c1c2cnc(Nc3ccc4c(c3)CNCC4)nc2c(C2CC2)nn1-c1c(Cl)cccc1Cl [Example 390, 8-cyclopropyl-6-(2,6-dichlorophenyl)-2-(1,2,3,4-tetrahydroisoquinolin-7-ylamino)pyrimido[4,5-d]pyridazin-5(6H)-one] |
| 0.93 | O=c1c2cnc(Nc3ccc4c(c3)CNCC43CC3)nc2c(C2CC2)nn1-c1c(Cl)cccc1Cl [Example 391, 8-cyclopropyl-6-(2,6-dichlorophenyl)-2-(2′,3′-dihydro-1′H-spiro[cyclopropane-1,4′-isoquinolin]-7′-ylamino)pyrimido[4,5-d]pyridazin-5(6H)-one] |
| 0.27 | O=c1c2cnc(Nc3ccc(N4CCNCC4)cc3)nc2c(C2CC2)nn1-c1c(Cl)cccc1Cl [Example 392, 8-cyclopropyl-6-(2,6-dichlorophenyl)-2-{[4-(piperazin-1-yl)phenyl]amino}pyrimido[4,5-d]pyridazin-5(6H)-one] |
| 1 | Cc1nn(-c2c(Cl)cccc2Cl)c(=O)c2cnc(Nc3ccc(N4CCNCC4)cc3)nc12 [Example 393, 6-(2,6-dichlorophenyl)-8-methyl-2-{[4-(piperazin-1-yl)phenyl]amino}pyrimido[4,5-d]pyridazin-5(6H)-one] |
| 1 | Cc1nn(-c2c(F)cccc2Cl)c(=O)c2cnc(Nc3ccc(N4CCNCC4)cc3)nc12 [Example 396, 6-(2-chloro-6-fluorophenyl)-8-methyl-2-{[4-(piperazin-1-yl)phenyl]amino}pyrimido[4,5-d]pyridazin-5(6H)-one] |
| 1 | Cc1nn(-c2c(Cl)cccc2Cl)c(=O)c2cnc(Nc3ccc4c(c3)CC(N(C)C)C4)nc12 (centres unmarked) [Example 397, 6-(2,6-dichlorophenyl)-2-{[2-(dimethylamino)-2,3-dihydro-1H-inden-5-yl]amino}-8-methylpyrimido[4,5-d]pyridazin-5(6H)-one] |
| 1 | Cc1nn(-c2c(F)cccc2Cl)c(=O)c2cnc(Nc3ccc4c(c3)CNCC4)nc12 [Example 398, 6-(2-chloro-6-fluorophenyl)-8-methyl-2-(1,2,3,4-tetrahydroisoquinolin-7-ylamino)pyrimido[4,5-d]pyridazin-5(6H)-one] |
| 18 | Cc1nn(-c2ncccc2Cl)c(=O)c2cnc(Nc3ccc(N4CCNCC4)cc3)nc12 [Example 399, 6-(3-chloropyridin-2-yl)-8-methyl-2-{[4-(piperazin-1-yl)phenyl]amino}pyrimido[4,5-d]pyridazin-5(6H)-one] |
| 6.7 | Cc1nn(-c2ncccc2Cl)c(=O)c2cnc(Nc3ccc4c(c3)CNCC4)nc12 [Example 400, 6-(3-chloropyridin-2-yl)-8-methyl-2-(1,2,3,4-tetrahydroisoquinolin-7-ylamino)pyrimido[4,5-d]pyridazin-5(6H)-one] |
| 0.22 | Cc1nn(-c2c(Cl)cccc2Cl)c(=O)c2cnc(Nc3ccc4c(c3)CN(C)CC43CC3)nc12 [Example 401, 6-(2,6-dichlorophenyl)-8-methyl-2-[(2′-methyl-2′,3′-dihydro-1′H-spiro[cyclopropane-1,4′-isoquinolin]-7′-yl)amino]pyrimido[4,5-d]pyridazin-5(6H)-one] |
| 0.23 | CCc1nn(-c2c(Cl)cccc2Cl)c(=O)c2cnc(Nc3ccc4c(c3)CN(C)CC43CC3)nc12 [Example 402, 6-(2,6-dichlorophenyl)-8-ethyl-2-[(2′-methyl-2′,3′-dihydro-1′H-spiro[cyclopropane-1,4′-isoquinolin]-7′-yl)amino]pyrimido[4,5-d]pyridazin-5(6H)-one] |

Same assay, conditions: read-out: Wee-1 inhibition Ki

| Ki [nM] | SMILES |
| --- | --- |
| 1 | Cc1nn(-c2c(Cl)cccc2Cl)c(=O)c2cnc(Nc3ccc4c(c3)CNCC4)nc12 [Example 395] |
